The results in this text go back to US9890185B2, “Urea derivatives useful as kinase inhibitors” (Respivert Limited, priority 2013, dated 2018).

In one experiment the test system is d-U937 cells. Put plainly: Accumulation of β catenin in d-U937 cells (assay m). In kind it is cell-based, human. The note with it: percentage relative to Reference Compound at 1 μg/mL. The essentials: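 Read-out: colourimetric cell-based immunoassay for endogenous β-catenin (OD450 minus 655 reference), normalised to crystal violet absorbance at 595 nm. Test compound or vehicle was applied for 18 hr to U937 monocytes first differentiated with PMA (100 ng/mL) for 48–72 hr.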

A further experiment has as its target Syk (Homo sapiens (Human), UniProt P43405). Put plainly: Syk enzyme inhibition (FRET, Z-LYTE). In kind it is biochemical. The essentials: (§1)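 Z-LYTE FRET; enzyme + cpd 2 hr RT, then peptide + ATP 1 hr (ATP added soln: c-Src 800 μM, Syk 60 μM); protease 1 hr. Donor/acceptor emission ratio, % inhib vs uninhibited control, IC50 from curve.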
For another experiment, the system named is HT29 cells. Put plainly: IL-1β-induced IL-8 release in HT29 cells (assay d). Conditions: Homo sapiens, HT-29; IL-1β-stimulated HT29 cells; read-out: IC50 Values for Inhibition of Cytokine Release, HT29 cells IL-8. In kind it is cell-based. As to the method:
HT29 cells, a human colon adenocarcinoma cell line, are plated in a 96 well plate (24 hrs) and pre-treated with compounds at the desired concentration for 2 hours before addition of 5 ng/mL of IL-1β (Abcam) for 24 hours. Supernatants are harvested for IL-8 quantification by Sandwich ELISA (Duo-set, R&D System). The IC50 is determined from the dose response curve.

Experiment [1] concerns the target p38 MAPKα isoform (MAPK14) (Homo sapiens (Human), UniProt Q16539). In words: p38 MAPKα enzyme inhibition (FRET, Z-LYTE, Method 2). It counts as biochemical. The essentials:
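Z-LYTE FRET: p38 MAPKα (80 ng/mL for Method 1, 200 ng/mL for Method 2, pre-dilution) preincubated 2 hr RT with compound (4–0.004 μg/mL solutions), activity read via MAPKAP-K2 phosphorylation after 1 hr RT and 1 hr protease development. Coumarin/fluorescein ratio gives phosphorylation; % inhibition versus uninhibited control, IC50 from concentration-response curve.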

The subject of experiment [2] is PBMCs. In words: LPS-induced IL-8 release in PBMC cells (assay b). In kind it is cell-based, human. The note with it: Homo sapiens, PBMC; LPS-stimulated PBMCs; read-out: IC50 Values for Inhibition of Cytokine Release, PBMCs IL-8. The essentials:
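Cytokines (TNFα, IL-8) in supernatants were quantified by sandwich ELISA after a 24 h challenge with 1 ng/mL E. coli LPS at 37° C, 5% CO2. Healthy-donor PBMCs had been exposed to compound for 2 h beforehand. IC50 values were fitted from the concentration-response curves.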

The target of a further experiment is c-Src (Homo sapiens (Human), UniProt P12931). Put plainly: c-Src enzyme inhibition (FRET, Z-LYTE). It counts as biochemical. The essentials:
as §1

The next experiment addresses GSK 3α (Homo sapiens (Human), UniProt P49840). In words: GSK 3α enzyme inhibition (FRET, Z-LYTE, Method 2). In kind it is biochemical. Conditions: read-out: IC50 Values for Enzyme Inhibition, GSK3α. The essentials: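 Recombinant human GSK3α was preincubated with compound (stocks 4, 0.4, 0.04 or 0.004 μg/mL) at RT, 2 hr for Method 1 and 105 min for Method 2. FRET peptide (8 μM stock) and ATP (40 μM stock) were added for 1 hr, then protease development for 1 hr. IC50 was taken from concentration–response curves.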

The subject of experiment [3] is PBMCs. In words: Cell mitosis assay in PBMCs (assay g). It counts as cell-based. Conditions: Homo sapiens, PBMC, test compound 5 μg/mL. The essentials: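 Metaphase arrest with 0.1 μg/mL demecolcine during the final 2 hr of a 20 hr compound exposure, which follows 48 hr of 2% PHA stimulation of healthy-donor human PBMCs. Mitotic lymphocytes counted by flow cytometry (anti-phospho-histone 3 plus propidium iodide). Inhibition expressed relative to 0.5% DMSO.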

The test system of experiment [4] is PBMCs. In words: IFN gamma release in CD3/CD28 stimulated PBMC cells (assay c). In kind it is cell-based. The note with it: Homo sapiens, read-out: IC50 Values for Inhibition of Cytokine Release, PBMCs IFNγ. Put shortly: (§2)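 Healthy-donor PBMCs (density-gradient isolated) stimulated on plates pre-coated with anti-CD3 (0.3 μg/mL) and anti-CD28 (3 μg/mL), with compound, for 3 days under normal culture conditions. IL-2 and IFN gamma in supernatants measured by sandwich ELISA; IC50 from dose-response curve.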

Experiment [5] has as its system PBMCs. Put plainly: IL-2 release in CD3/CD28 stimulated PBMC cells (assay c). In kind it is cell-based. The note with it: Homo sapiens, read-out: IC50 Values for Inhibition of Cytokine Release, PBMCs IL-2. Put shortly:
as §2

p38 MAPKα isoform (MAPK14), sequence (Q16539 whole entry, canonical isoform): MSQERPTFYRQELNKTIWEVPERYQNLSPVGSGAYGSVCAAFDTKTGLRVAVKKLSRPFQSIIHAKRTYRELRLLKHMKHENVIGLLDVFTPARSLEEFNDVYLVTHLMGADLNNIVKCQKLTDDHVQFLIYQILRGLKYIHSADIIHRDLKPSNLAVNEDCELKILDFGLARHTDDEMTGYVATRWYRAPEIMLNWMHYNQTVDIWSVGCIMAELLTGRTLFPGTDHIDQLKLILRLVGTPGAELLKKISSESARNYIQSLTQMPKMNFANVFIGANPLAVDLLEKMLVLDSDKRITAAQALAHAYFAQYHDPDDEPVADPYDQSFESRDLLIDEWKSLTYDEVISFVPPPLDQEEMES
c-Src, sequence (P12931 whole entry, looked up): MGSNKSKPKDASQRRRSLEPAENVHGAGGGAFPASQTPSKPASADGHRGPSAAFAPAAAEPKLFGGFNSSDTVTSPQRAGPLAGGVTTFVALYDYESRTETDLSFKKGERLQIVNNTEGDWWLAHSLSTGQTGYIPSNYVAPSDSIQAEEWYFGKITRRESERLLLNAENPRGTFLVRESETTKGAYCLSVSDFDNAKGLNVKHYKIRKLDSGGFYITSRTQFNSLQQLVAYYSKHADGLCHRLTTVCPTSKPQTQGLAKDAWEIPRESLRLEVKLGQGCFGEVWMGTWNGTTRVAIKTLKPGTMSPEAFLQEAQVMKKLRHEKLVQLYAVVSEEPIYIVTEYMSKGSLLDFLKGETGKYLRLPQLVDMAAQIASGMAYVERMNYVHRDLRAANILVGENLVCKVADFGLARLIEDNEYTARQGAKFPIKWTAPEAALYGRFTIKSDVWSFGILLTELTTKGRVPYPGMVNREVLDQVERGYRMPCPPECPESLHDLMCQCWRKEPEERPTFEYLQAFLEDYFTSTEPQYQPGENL
GSK 3α, sequence (P49840 whole entry): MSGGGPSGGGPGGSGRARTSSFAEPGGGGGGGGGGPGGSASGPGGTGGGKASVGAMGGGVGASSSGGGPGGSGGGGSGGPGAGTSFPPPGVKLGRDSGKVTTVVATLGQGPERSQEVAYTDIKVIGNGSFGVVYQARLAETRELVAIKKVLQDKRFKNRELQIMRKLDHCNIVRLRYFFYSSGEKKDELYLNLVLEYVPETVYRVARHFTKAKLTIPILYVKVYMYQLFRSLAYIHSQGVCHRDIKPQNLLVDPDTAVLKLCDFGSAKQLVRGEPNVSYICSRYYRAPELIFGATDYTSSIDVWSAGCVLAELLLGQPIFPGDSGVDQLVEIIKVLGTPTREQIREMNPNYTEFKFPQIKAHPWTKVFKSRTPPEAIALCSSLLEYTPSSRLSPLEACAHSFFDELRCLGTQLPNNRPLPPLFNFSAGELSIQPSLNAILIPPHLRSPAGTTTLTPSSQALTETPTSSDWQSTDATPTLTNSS

Usually IC50 stands for the point on the concentration scale where inhibition reaches its midpoint. Consider `COCCOCCOCCOc1cc(Nc2nccc(Oc3ccc(NC(=O)Nc4cc(C(C)(C)C)cc(CC(N)=O)c4OC)c4ccccc34)n2)cc(OC)c1` [15(c), 2-(5-(tert-butyl)-2-methoxy-3-(3-(4-((2-((3-methoxy-5-(2-(2-(2-methoxyethoxy)ethoxy)-ethoxy)phenyl)amino)pyrimidin-4-yl)oxy)naphthalen-1-yl)ureido)phenyl)acetamide], for which the “% β-catenin induction” value in the experiment on d-U937 cells (test compound 1 μg/mL) stood at 5.5%; in the experiment on d-U937 cells (test compound 5 μg/mL), 36.0%; with d-U937 cells (test compound 10 μg/mL), 33.0%. Further, the IC50 came out at 103 nM against Syk; 3.6 nM in the experiment with HT29 cells; 52 nM in experiment [1]; 1.6 nM with PBMCs [2]; 16 nM against c-Src; 844 nM on GSK 3α.
In general, inhibition refers to the share of the control response that was lost under treatment. In turn, `COc1c(NC(=O)Nc2ccc(Oc3ccnc(Nc4ccccc4)c3)c3ccccc23)cc(C(C)(C)C)cc1C(=O)NCCN1CCC1` [38(a), N-(2-(Azetidin-1-yl)ethyl)-5-(tert-butyl)-2-methoxy-3-(3-(4-((2-(phenylamino)pyridin-4-yl)oxy)naphthalen-1-yl)ureido)benzamide] registered an inhibition at 5 µg/mL with PBMCs [3] of 86.2%. Also, the “% β-catenin induction” value with d-U937 cells (test compound 1 μg/mL) was 5.0%; in the experiment with d-U937 cells (test compound 5 μg/mL) it was 10.7%; in the experiment on d-U937 cells (test compound 10 μg/mL), 19.0%. Also, the IC50 on Syk worked out at 54 nM; in the experiment with HT29 cells it was 25.7 nM; in experiment [1] it was 119 nM; in the experiment on PBMCs [2], 3.8 nM; against c-Src, 74 nM; at GSK 3α, 3320 nM.
Take `COc1cc(CO)cc(Nc2cc(Oc3ccc(NC(=O)Nc4cc(C(C)(C)C)cc(P(C)(C)=O)c4OC)c4ccccc34)ccn2)c1` [38(c), 1-(5-(tert-Butyl)-3-(dimethylphosphoryl)-2-methoxyphenyl)-3-(4-((2-((3-(hydroxymethyl)-5-methoxyphenyl)amino)pyridin-4-yl)oxy)naphthalen-1-yl)urea]: testing at 5 µg/mL with PBMCs [3] gave an inhibition of 90.2%. In addition, the “% β-catenin induction” value in the experiment with d-U937 cells (test compound 1 μg/mL) was found to be 3.5%; in the experiment on d-U937 cells (test compound 5 μg/mL), 16.0%; with d-U937 cells (test compound 10 μg/mL), 28.5%. Further, the IC50 on Syk was 31 nM; with HT29 cells, 7.3 nM; in [1], 27 nM; with PBMCs [2], 1.7 nM; at c-Src it was 12 nM; on GSK 3α, 2220 nM.
In the experiment with PBMCs [3], `COc1c(NC(=O)Nc2ccc(Oc3ccnc(NCc4ccccn4)c3)c3ccccc23)cc(C(C)(C)C)cc1P(C)(C)=O` [38(e), 1-(5-(tert-Butyl)-3-(dimethylphosphoryl)-2-methoxyphenyl)-3-(4-((2-((pyridin-2-ylmethyl)amino)pyridin-4-yl)oxy)naphthalen-1-yl)urea] returned an inhibition at 5 µg/mL of 41.6%. For the same compound, the figures for the “% β-catenin induction” value in the experiment on d-U937 cells (test compound 1 μg/mL), with d-U937 cells (test compound 5 μg/mL) and in the experiment on d-U937 cells (test compound 10 μg/mL) were 2.0%, 30.5% and 32.5%, respectively. Further, the IC50 is over 1600 nM against Syk; 15.9 nM in the experiment with HT29 cells; 5 nM in experiment [1]; 2.9 nM in the experiment on PBMCs [2]; 522 nM against c-Src; 1980 nM on GSK 3α.
In the experiment on PBMCs [3], `COc1c(CC(N)=O)cc(C(C)(C)C)cc1NC(=O)Nc1ccc(Oc2ccnc(Nc3cccc(OS(C)(=O)=O)c3)c2)c2ccccc12` [38(r), 3-((4-((4-(3-(3-(2-Amino-2-oxoethyl)-5-(tert-butyl)-2-methoxyphenyl)ureido)naphthalen-1-yl)oxy)pyridin-2-yl)amino)phenyl methanesulfonate] returned an inhibition at 5 µg/mL of 56.1%. In addition, the IC50 against Syk is over 1460 nM; with HT29 cells it was 25.9 nM; in the experiment with PBMCs [4], 9.8 nM; in the experiment with PBMCs [5], 153 nM; in experiment [1], 151 nM; in the experiment with PBMCs [2], 1.9 nM. Besides, the IC50 against c-Src worked out at 94 nM; on GSK 3α, 2210 nM.
In turn, `COc1cc(Nc2cc(Oc3ccc(NC(=O)Nc4cc(C(C)(C)C)cc(C[S+](C)[O-])c4OC)c4ccccc34)ccn2)cc(C(=O)NCCN2CCOCC2)c1` (stereo not drawn) [38(u), 3-((4-((4-(3-(5-(tert-Butyl)-2-methoxy-3-((methylsulfinyl)methyl)phenyl)ureido)naphthalen-1-yl)oxy)pyridin-2-yl)amino)-5-methoxy-N-(2-morpholinoethyl)benzamide] returned an inhibition at 5 µg/mL in the experiment on PBMCs [3] of 72.2%. In addition, the IC50 with HT29 cells stood at 2.6 nM; in the experiment on PBMCs [4] it was 2.9 nM; in the experiment on PBMCs [5], 171 nM; in experiment [1], 15 nM; in the experiment with PBMCs [2], 1 nM; on c-Src it was 13 nM. Further, at GSK 3α, the IC50 was found to be 1070 nM.
`COCCOCCOCCOc1cc(Nc2nccc(Oc3ccc(NC(=O)Nc4cc(C(C)(C)C)cc(OS(C)(=O)=O)c4OC)c4ccccc34)n2)cc(OC)c1` [Example 5, 5-(tert-Butyl)-2-methoxy-3-(3-(4-((2-((3-methoxy-5-(2-(2-(2-methoxyethoxy)ethoxy)-ethoxy)phenyl)amino)pyrimidin-4-yl)oxy)naphthalen-1-yl)ureido)phenyl methanesulfonate]: the IC50 in the experiment on HT29 cells was 7.3 nM; in the experiment on PBMCs [2], 8.7 nM; at GSK 3α it was over 9380 nM.
In turn, `COc1c(NC(=O)Nc2ccc(Oc3ccnc(NCc4ccccn4)c3)c3ccccc23)cc(C(C)(C)C)cc1[S+](C)[O-]` (stereo not drawn) [Example 42, 1-(5-(tert-Butyl)-2-methoxy-3-(methylsulfinyl)phenyl)-3-(4-((2-((pyridin-2-ylmethyl)amino)pyridin-4-yl)oxy)naphthalen-1-yl)urea] registered an inhibition at 5 µg/mL in the experiment on PBMCs [3] of 29.9%. Moreover, the “% β-catenin induction” value with d-U937 cells (test compound 1 μg/mL) is on record as −5.0%; in the experiment on d-U937 cells (test compound 5 μg/mL), 12.0%; in the experiment with d-U937 cells (test compound 10 μg/mL), 20.5%. The IC50 against Syk is over 1640 nM; in the experiment on HT29 cells, 2 nM; in experiment [1] it was 8 nM; in the experiment on PBMCs [2] it was 4.3 nM; at c-Src, over 1640 nM; on GSK 3α, 3410 nM.
`COc1cc(Nc2cc(Oc3ccc(NC(=O)Nc4cc(C(C)(C)C)cc(CC(N)=O)c4OC)c4ccccc34)ccn2)cc(C(=O)NCCN2CCOCC2)c1` [Example 45, 3-((4-((4-(3-(3-(2-Amino-2-oxoethyl)-5-(tert-butyl)-2-methoxyphenyl)ureido)naphthalen-1-yl)oxy)pyridin-2-yl)amino)-5-methoxy-N-(2-morpholinoethyl)benzamide]: in the experiment on PBMCs [3], testing at 5 µg/mL gave an inhibition of 49.6%. The IC50 at Syk was over 706 nM; in the experiment with HT29 cells it was 8 nM; with PBMCs [4], 5.2 nM; with PBMCs [5], 36.4 nM; in experiment [1], 21 nM; with PBMCs [2], 1.2 nM. In addition, the IC50 amounted to 12 nM against c-Src and 1600 nM at GSK 3α.
For `COc1cc(Nc2cc(Oc3ccc(NC(=O)Nc4cc(C(C)(C)C)cc([S+](C)[O-])c4OC)c4ccccc34)ccn2)cc(C(=O)NCCN2CCOCC2)c1` (stereo not drawn) [Example 46, 3-((4-((4-(3-(5-(tert-Butyl)-2-methoxy-3-(methylsulfinyl)phenyl)ureido)naphthalen-1-yl)oxy)pyridin-2-yl)amino)-5-methoxy-N-(2-morpholinoethyl)benzamide], the inhibition at 5 µg/mL with PBMCs [3] came to 45.8%. Besides, the IC50 against Syk was determined as 996 nM; in the experiment on HT29 cells, 2.8 nM; in the experiment with PBMCs [4], 2.8 nM; in the experiment with PBMCs [5] it was 47.3 nM; in [1], 25 nM; in the experiment on PBMCs [2], 0.8 nM. Moreover, the IC50 against c-Src was determined as 25 nM; on GSK 3α, 2060 nM.
